Assay results published in patent publication US20120034608A1, “MICRORNA AS A BIOMARKER OF PANCREATIC ISLET BETA-CELL ENGAGEMENT” (Merck Sharp & Dohme Corp., priority 2009, published 2012).

Assays:
rat pancreatic islets = test: miRNA expression in isolated rat islets (TAQMAN); type: cell-based; conditions: 50 nM GLP-1, 11 mM glucose, 24 hours
Experimental: INS-1 832/3 and 832/13 cells were maintained in RPMI 1640 with 10% FBS and 11 mM glucose. For GLP-1 treatment, GLP-1 (7-37) amide (ABCHEM) was added in the media in the presence of 16 mM glucose for 24 hours. Total RNA was extracted with TRIZOL as in Example 1. Rat islet isolation and treatment was as follows. Pancreatic islets of Langerhans were isolated from the pancreas of normal Sprague-Dawley rats (Charles River, Ind.) by collagenase digestion and discontinuous Ficoll gradient separation (15). Islets were cultured for 2 hours in RPMI 1640 medium with 11 mM glucose for recovery from the isolation process. Then 100-200 islets were treated with 50 nM GLP-1 in the media with 11 mM glucose for 24 hours. RNA was extracted with TRIZOL as in Example 1 for quantification of microRNA species.
To verify that GLP-1 mediated miR-212 and miR-132 expression changes are of biological relevance, we analyzed their expression in freshly isolated rat islets treated with GLP-1. Pancreatic islets of Langerhans were isolated from the pancreas of normal Sprague-Dawley rats (Charles River, Ind.) by collagenase digestion and discontinuous Ficoll gradient separation. Islets were cultured for two hours in RPMI 1640 medium with 11 mM glucose for recovery from the isolation process. Then 100 to 200 islets were treated with 50 nM GLP-1 in the media with 11 mM glucose for 24 hours. RNA was extracted with TRIZOL reagent/ethanol precipitation followed by quantification of miRNA species. […] The regulation of miR-132 and miR-212 expression by GLP-1 was confirmed in rat pancreatic islets.

INS-1 832/3 cells [1] = test: release of miRNAs from INS-1 832/3 cells into culture media (TAQMAN, normalized to U6 RNA); type: cell-based, rat; conditions: 50 nM GLP-1, after 4 or 8 hours
Experimental: INS1 832/3 cells were treated with 50 nM GLP-1 (7-37) amide (BACHEM) in RPMI 1640 with 10% FBS and 11 mM glucose in 24-well plates for 4, 8, 16, and 24 hours. Cell culture media was collected, 100 μL out of 1 mL media per sample was used for RNA extraction following the protocol for plasma samples (Mitchell et al., Proc. Natl. Acad. Sci. USA 105: 10513-10518). Briefly, RNA isolation was performed using the mirVana PARIS kit following the manufacturer's protocol (Ambion), except that samples were extracted twice with acid phenol-chloroform. The average of about 80 μL of eluate was recovered from each extraction. A fixed volume of 1.67 μL of the RNA eluate was used as input into the reverse transcription reaction. RNA was reverse transcribed using the TAQMAN miRNA Reverse Transcription Kit and miRNA-specific stem-loop primers in 5 μL volume (Applied BioSystems). About 2.25 μL of diluted PCR product (combining 5 μL RT product with 28.9 μL H2O) was added to 2.75 μL of PCR assay reagents to generate a PCR of 5 μL of total volume. The relative miRNA levels were determined by real-time RT-PCR using the ABI PRISM 7900 Sequence Detection System from Applied Biosystems (Foster City, Calif.) through 40 cycles as described in Example 2. TAQMAN reagents were purchased from Applied Biosystems (Foster City, Calif.). […]

C57/Bl6 mice = test: plasma miRNA levels in lean mice after a single injection; type: in vivo, mouse; conditions: C57/Bl6 mice (FIG. 5 legend)
Experimental: The plasma levels of miR-132 and miR-212 were measured in lean mice treated with an oxyntomodulin (OXM) derivative (a long-acting GLP-1 receptor agonist disclosed in Published International Application No. WO2007/100535) before and then 24-hours and 48-hours after a single injection of the OXM derivative. Groups of 16 weeks old mice were dosed with 30 mpk OXM derivative (s.c.) or vehicle (3% mannitol, 75 mM NaCl, 20 mM sodium acetate, pH 5) and approximately 50 μL blood each were collected into EDTA tubes before and 24 hours and 48 hours post-dosing. All the blood samples were immediately placed on ice and plasma were prepared within one hour and stored at −80° C. RNA extraction and TAQMAN RT-PCR analysis were as described in Example 3. 50 μL aliquots of the plasma samples were thawed on ice and 2× Denaturing Solution (Ambion) was added. To allow for normalization for sample variations, three C. elegans miRNAs, cel-miR39, cel-miR54, and cel-miR-238, were added at a final concentration of 20, 200, and 2000 fM (sequence information according to miRBase). miR132, miR-212, and miR-375 expression levels were normalized to spiked-in cel-miR39.

INS-1 832/3 cells [2] = test: glucose dependent insulin secretion (GDIS) assay in INS-1 832/3 cells; type: cell-based, rat; conditions: 16 mM glucose, two-hour incubation in KRB
Description: (§1) We overexpressed the precursors of miR-132 and miR-212 to evaluate their possible contribution to β-cell function. MicroRNA miR-375 was included as a control as it been reported to have an inhibitory effect on GDIS (Poy et al., Nature 432: 226-230 (2004)). Chemically modified Pre-miR™ miRNA precursor molecules and Anti-miR™ miRNA inhibitors were purchased from Ambion (Foster City, Calif.). miRCURY LNA™ microRNA knockdown oligonucleotides were purchased from Exiqon (Woburn, Mass.). The oligonucleotide molecules were delivered to the cells by the Nucleofector Device (Amaxa, Gaithersburg, Md.). In brief, INS-1 cells were trypsinized, centrifuged, and resuspended in 100 μl Nucleofector solution V. Then 100-500 pmole RNA oligonucleotides were transfected to 3-million cells at the concentration of 1-5 μM with the Amaxa Nucleofector Device. Scramble controls from the vendors were used with the same transfection method. After electroporation, the cells were transferred to regular culture medium and then split into replicates in 96-well plates. Insulin secretion assay or LANCE cAMP assay were performed 48 hours post electroporation.
(§2) INS-1 cell glucose dependent insulin secretion (GDIS) assay was performed as follows. The GDIS assay was performed with cells grown to near confluency in 96-well plates. Prior to the assay, cells were washed once with PBS and pre-incubated for two hours in freshly prepared Krebs-Ringer Bicarbonate (KRB) medium without glucose. The medium were then replaced with KRB with 2, 8 or 16 mM glucose or along with 10 nM GLP-1. The cells were incubated for another two hours in a CO2 incubator. The media was then removed at the end of incubation, and assayed for insulin levels by Ultra-sensitive Rat Insulin ELISA kit (ALPCO, Salem, N.H.) or insulin immunoassay by Gyrolab workstation (GYROS AB, Uppsala, Sweden). Intracellular insulin was extracted by acid ethanol method for measuring intracellular insulin content. Total protein was measured by Pierce 660 nm Protein Assay from Pierce Biotechnology, Inc. (Rockford, Ill.).

INS-1 832/13 cells = test: glucose dependent insulin secretion (GDIS) assay in INS-1 832/13 cells; type: cell-based, rat; conditions: 16 mM glucose, two-hour incubation in KRB
Description: as §1, §2

Substance: GLP-1 (7-37) amide
- miR-132 expression level increased (rat pancreatic islets): 2 fold
- miR-212 expression level increased (rat pancreatic islets): 2 fold
- regulation of miR-375 and miR-217 expression (rat pancreatic islets): Neither miR-375 nor miR-217 was significantly regulated
- miR-132 in the medium compared to vehicle (INS-1 832/3 cells [1]): remained unchanged
- miR-212 in the medium compared to vehicle (INS-1 832/3 cells [1]): remained unchanged
- plasma levels of miR-132 (C57/Bl6 mice): increased
- plasma levels of miR-212 (C57/Bl6 mice): increased
- increase of insulin secretion upon treatment with GLP-1 (INS-1 832/3 cells [2]): greater than 300%
- increase of insulin secretion upon treatment with GLP-1 (INS-1 832/13 cells): less than 50%
